According to patent US11466044B2 (WAYNE STATE UNIVERSITY, priority 2017, dated 2022):
In brackets after ≈: the same amount, converted by molar mass. Like-named read-outs stand apart in the source and are kept apart here.

Key:
[1] = tested on: M. smegmatis SZ380; test: MIC by broth microdilution, M. smegmatis
[2] = tested on: Enterobacter cloacae AG290; test: MIC by broth microdilution, Enterobacter cloacae; format: cell-based; settings: strain AG290 Enterobacter cloacae
[3] = tested on: Acinetobacter baumannii pittii AG225; test: MIC by broth microdilution, Acinetobacter baumannii; format: cell-based; settings: strain AG225 Acinetobacter baumannii pittii
[4] = tested on: A1555G mutant mitochondrial ribosome (human chimeric); test: in-vitro translation assay, human chimeric ribosomes, A1555G mutant mitochondrial decoding site; format: biochemical; settings: human mitochondrial decoding site with A1555G point mutation; read-out: IC50 Mitoch. A1555G
Description: (§1) The antiribosomal activity of these compounds was investigated with cell-free translation assays using both wild type bacterial ribosomes and hybrid ribosomes carrying eukaryotic decoding A sites enabling the prediction of selectivity.

[5] = tested on: rabbit reticulocyte ribosomes; test: in-vitro translation assay, rabbit reticulocyte ribosomes; format: biochemical; settings: mammalian cytosolic ribosomes (rabbit)
[6] = tested on: E coli wild type; test: MIC by broth microdilution, wild type E coli; format: cell-based
[7] = tested on: MRSA; test: MIC by broth microdilution, MRSA isolates; format: cell-based
[8] = tested on: P aeruginosa; test: MIC by broth microdilution, P aeruginosa isolates; format: cell-based, Pseudomonas aeruginosa
[9] = tested on: Klebsiella pneumonia AG215; test: MIC by broth microdilution, Klebsiella pneumonia; format: cell-based; settings: strain AG215 Klebsiella pneumonia
[10] = tested on: N. gonorrhoeae; test: Disk diffusion, N. gonorrhoeae; format: cell-based; settings: 25 nmol
[11] = tested on: cytosolic ribosome (human chimeric); format: biochemical
Description: as §1

[12] = tested on: mitochondrial ribosome (human chimeric); format: biochemical; settings: for IC50: mitochondrial, read-out: IC50 Mit
Description: as §1

NC[C@@H]1O[C@H](O[C@H]2[C@@H](O)[C@H](O[C@@H]3[C@@H](O)[C@H](N)C[C@H](N)[C@H]3O[C@H]3O[C@H](CN)[C@@H](O)[C@H](O)[C@H]3N)O[C@@H]2CO)[C@H](N)[C@@H](O)[C@@H]1O [neomycin, Neomycin B, reference compound]
MIC M. smegmatis SZ380 WT ([1]; SZ380 WT, Table 5 (Example 3)): 0.5 µg/mL (≈ 0.813 µM) | MIC SZ380 M. smegmatis ([1]; strain SZ380 Mycobacterium smegmatis): 0.5 µg/mL (≈ 0.813 µM) | MIC AG290 E. cloacae [2]: 1 µg/mL (≈ 1.63 µM) | MIC AG225 A. baumannii [3]: 1 to 2 µg/mL | IC50 [4]: 400 nM | IC50 [5]: 49 µM | MIC E coli AG006 Wild type ([6]; AG006 Wild type, Table 2 (Example 3)): 0.25 to 0.5 µg/mL | MIC E coli AG104 Wild type ([6]; AG104 Wild type, Table 2 (Example 3)): 0.5 to 1 µg/mL | MIC50 E coli BM13 (AG06) wt ([6]; BM13 (AG06) wt, Table 2A (Example 2)): 1 µg/mL (≈ 1.63 µM) | MIC pH430 WT ([6]; E. coli strain pH430, WT): 1 μg/ml | MIC WT ([6]; Table 3 (Example 1)): 1 µg/mL (≈ 1.63 µM) | MIC WT ([6]; Table 3 (Example 2)): 1 µg/mL (≈ 1.63 µM) | MIC E. coli WT ([6]; Table 4 (Example 3)): 1 µg/mL (≈ 1.63 µM) | MIC E. coli WT ([6]; Table 5 (Example 3)): 0.5 to 1 µg/mL | MIC AG001 E. coli WT ([6]; clinical isolate AG001, WT): 1 µg/mL (≈ 1.63 µM) | MIC E coli AG001 ([6]; clinical isolate AG001, Table 1 (Example 3)): 4 µg/mL (≈ 6.51 µM) | MIC E coli AG003 ([6]; clinical isolate AG003, Table 1 (Example 3)): 1 µg/mL (≈ 1.63 µM) | MIC AG055 E. coli WT ([6]; clinical isolate AG055, WT): 1 µg/mL (≈ 1.63 µM) | MIC E coli AG055 ([6]; clinical isolate AG055, Table 1 (Example 3)): 1 µg/mL (≈ 1.63 µM) | MIC AG160 E. coli WT ([6]; clinical isolate AG160 WT, Table 2 (Example 4)): 1 µg/mL (≈ 1.63 µM) | MIC pH430 E. coli WT ([6]; engineered strain pH430 WT, Table 2 (Example 4)): 1 μg/ml | MIC50 E coli pH430 WT ([6]; pH430 WT, Table 2B (Example 2)): 1 μg/ml | MIC50 E coli AG01 ([6]; strain AG01, Table 1 (Example 2)): 2 µg/mL (≈ 3.25 µM) | MIC50 E coli AG03 ([6]; strain AG03, Table 1 (Example 2)): 1 µg/mL (≈ 1.63 µM) | MIC50 E coli AG55 ([6]; strain AG55, Table 1 (Example 2)): 1 to 2 µg/mL | MIC AG212 E. coli ([6]; strain AG212 E. coli (ATCC25922)): 0.5 to 1 µg/mL | MIC AG038 MRSA ([7]; clinical isolate AG038): 0.25 µg/mL (≈ 0.407 µM) | MIC MRSA AG038 ([7]; clinical isolate AG038, Table 1 (Example 3)): 0.25 µg/mL (≈ 0.407 µM) | MIC AG039 MRSA AAC(6′)-I ANT(4′)-I ([7]; clinical isolate AG039, AAC(6′)-I ANT(4′)-I): 128 µg/mL (≈ 208 µM) | MIC MRSA AG039 ([7]; clinical isolate AG039, Table 1 (Example 3)): 128 µg/mL (≈ 208 µM) | MIC AG042 MRSA AAC(6′)-I ANT(4′)-I APH(2′) ([7]; clinical isolate AG042, AAC(6′)-I ANT(4′)-I APH(2′)): 128 µg/mL (≈ 208 µM) | MIC MRSA AG042 ([7]; clinical isolate AG042, Table 1 (Example 3)): 128 µg/mL (≈ 208 µM) | MIC MRSA AG044 ([7]; clinical isolate AG044, Table 1 (Example 3)): 0.5 to 1 µg/mL | MIC50 MRSA AG38 ([7]; strain AG38, Table 1 (Example 2)): 1 to 2 µg/mL | MIC50 MRSA AG39 ([7]; strain AG39, Table 1 (Example 2)): 128 µg/mL (≈ 208 µM) | MIC50 MRSA AG42 ([7]; strain AG42, Table 1 (Example 2)): 128 µg/mL (≈ 208 µM) | MIC50 MRSA AG44 ([7]; strain AG44, Table 1 (Example 2)): 0.5 to 1 µg/mL | MIC AG031 P. aer. APH(3′)-II ([8]; clinical isolate AG031, APH(3′)-II): 8 µg/mL (≈ 13 µM) | MIC AG032 P. aer. APH(3′)-II ([8]; clinical isolate AG032, APH(3′)-II): 8 µg/mL (≈ 13 µM) | MIC50 P aeruginosa AG31 ([8]; strain AG31, Table 1 (Example 2)): 32 µg/mL (≈ 52.1 µM) | MIC50 P aeruginosa AG32 ([8]; strain AG32, Table 1 (Example 2)): 32 to 64 µg/mL | MIC50 P aeruginosa AG33 ([8]; strain AG33, Table 1 (Example 2)): >128 µg/mL | MIC50 P aeruginosa AG86 ([8]; strain AG86, Table 1 (Example 2)): >128 µg/mL | MIC AG220 P. aerugin ([8]; strain AG220 Pseudomonas aeruginosa ATCC27853): 32 µg/mL (≈ 52.1 µM) | MIC AG215 K. pneumon [9]: 0.5 µg/mL (≈ 0.813 µM) | Disk diffusion 25 nmol N. gonorrhoeae [10]: <8 mm | IC50 ([11]; cytosolic, Table 3 (Example 1), read-out: IC50 Cyt): 35 µM | IC50 ([11]; cytosolic, Table 3 (Example 2), read-out: IC50 Cyt): 35 µM | IC50 ([11]; cytosolic, Table 4 (Example 3), read-out: IC50 Cyt): 35 µM | IC50 ([11]; ribosomes with a human cytosolic decoding site, read-out: IC50 Cytosolic): 35 µM | IC50 ([12]; Table 3 (Example 1)): 4.3 µM | IC50 ([12]; Table 3 (Example 2)): 4.3 µM | IC50 ([12]; Table 4 (Example 3)): 4.3 µM | Target specificity bacterial vs. Mitochondrial ([12]; relative target specificity, bacterial vs. human mitochondrial): low
